In article PMC4897788, “Design, biological evaluation and 3D QSAR studies of novel dioxin-containing pyrazoline derivatives with thiourea skeleton as selective HER-2 inhibitors” (Scientific Reports, 2016):

What was measured:
[1] = tested on: MDA-MB-453 human breast cancer cell line; test: Anti-proliferation assay (MTT), MDA-MB-453; assay type: cell-based; details: 24 h
Experimental: MCF-7 human breast cancer cells was cultured in DMEM/10% fetal bovine serum, in 5% CO2 water saturated atmosphere at 37 °C. MDA-MB-453 human breast cancer cells was cultured in L-15 medium in 100% air at 37 °C. Cell suspensions (10000/mL) were prepared and 100 μL/well dispensed into 96-well plates (Costar) giving 1000 cells/well. The plates were returned to the incubator for 24 h to allow the cells to reattach. These compounds were initially prepared at 20 mM in DMSO. Aliquots (200 μL) were diluted into 20 mL culture medium giving 200 μM, and 10 serial dilutions of 3× prepared. Aliquots (100 μL) of each dilution were added to the wells, giving doses ranging from 100 μM to 0.005 μM. After a further incubated at 37 °C for 24 h in a humidified atmosphere with 5% CO2, the cell viability was assessed by the conventional 3-(4,5-dimethylthiazol-2-yl)-2,5-diphenyltetrazolium bromide (MTT) reduction assay and carried out strictly according to the manufacturer instructions (Sigma). The absorbance at 590 nm was recorded using LX300 Epson Diagnostic micro-plate reader. Then GI50 was calculated using SPSS 13.0 software.

[2] = tested on: MDA-MB-453 cell line; test: Flow cytometry, Annexin V-FITC/PI apoptosis; assay type: cell-based, human; details: 0.05, 0.1 and 0.2 μM, 24 h
Experimental: MDA-MB-453 cell line was seeded per well in 24-well plates and incubated overnight. Then they were treated with compound C20 at three different concentrations (0.05 μM, 0.1 μM and 0.2 μM, separately). DMSO was chosen as the negative control with a regular dosage of 0.2%. After 24 h, cells were harvested for the apoptosis detection. In brief, collected cells were washed once with PBS and subsequently washed once with binding buffer, and then stained with Annexin V-FITC and propidium iodide (PI) in the binding buffer for 20 min at room temperature in the dark. Apoptotic cells were quantified using a FACScan cytofluorometer (PT. Madagasi Brosa Inc. JI. Batang Hari NO. 73, Propinsi Sumatera Utara, Indonesia) plotting at least 10,000 events per sample. To quantify the data, the frequencies in all quadrants were analyzed using flowjo software. We regarded cells in the lower right quadrant (Annexin V positive/PI negative) as early apoptotic cells, and cells in upper right quadrant (Annexin V positive/PI positive) as late apoptotic cells and necrotic cells.

[3] = tested on: p-HER-2; test: Western blot p-HER-2 in MDA-MB-453; assay type: cell-based, human; details: increasing C20 levels
Experimental: (§1) After incubation with compound, cells were harvested and washed with PBS, then lysed in lysis buffer (30 mm Tris, pH 7.5, 150 mm NaCl, 1 mm phenylmethylsulfonyl fluoride, 1 mm Na3VO4, 1% Nonidet P-40, 10% glycerol, and phosphatase and protease inhibitors). After centrifugation at 12,000 g for 5 min, the supernatant was collected as total protein. The concentration of the protein was determined by a BCATM protein assay kit (Pierce, Rockford, IL, USA). The protein samples were separated by 10% SDS–PAGE and subsequently electrotransferred onto a polyvinylidene difluoride membrane (Millipore, Bedford, MA, USA). The membrane was blocked with 5% non-fat milk for 2 h at room temperature. The blocked membrane was probed with the indicated primary antibodies overnight at 4 °C, and then incubated with a horse radish peroxidase (HRP)-coupled secondary antibody.

[4] = tested on: p-EGFR; test: Western blot p-EGFR in MDA-MB-453; assay type: cell-based, human; details: increasing C20 levels
Experimental: as §1

[5] = biological target: HER-2 protein (truncated) (Homo sapiens, UniProt P04626); test: BLI assay (bio-layer interferometry); assay type: binding; details: labeled compound, calculated by the Octet Red96 system
Experimental: Bio-layer interferometry (BLI). Binding of compounds (labeled; 0.01, 0.05, 0.1, 0.5 μM) to the HER-2 protein (truncated) was measured and analyzed on an Octet Red96 instrument (ForteBio) at room temperature. The buffer-equilibrated streptavidin biosensors were loaded with 100 μg/mL protein. A duplicate set of sensors was incubated in the buffer without protein for a background binding control. The assay was performed in black 96-well plates (Thermo Fisher Scientific) with the total working volume of 0.21 mL per well. The signal was analyzed using a double reference subtraction protocol to subtract the non-specific binding, background, and signal drift caused by sensor variability. The binding event was quantified by the shift of interference pattern of the light. The result was shown in Fig. 7 and the KD was calculated by the Octet Red96 instrument.

[6] = biological target: T1, VEGFR-2 (Homo sapiens, UniProt P35968); test: VEGFR-2 inhibitory assay; assay type: biochemical
T1 construct: either the phosphorylated or nonphosphorylated form of the VEGFR-2 kinase domain
Experimental: In a 96-well plate, 5 nM/L of either the phosphorylated or nonphosphorylated form of the VEGFR-2 kinase domain was incubated with selected compounds (10-point titration ranging from 4 μM to 0.1 μM), 1 μM/L gastrin substrate, 20 mM/L Tris-HCl, pH 7.5, 10 mM/L MgCl2, 100 mM/L NaCl, 1.5 mM/L EGTA, 1 mM/L DTT, 0.2 mM/L sodium orthovanadate, and 20 μg/mL BSA for 30 min at 25 °C. ATP was added at a final concentration of 11.8 μM and incubated for 60 min at room temperature. Eu-labeled antiphosphotyrosine pT66 antibody (Perkin- Elmer) was then used for detection. The fluorescence at 665 nM was measured with a Wallac Victor plate reader using a time delay of 50 μs. The experiment was performed for three independent times and in triplicate each time.

[7] = tested on: human erythrocytes; test: Hemolysis test; assay type: cell-based; details: lytic concentration 30%
Experimental: Hemolytic activity was assayed using fresh capillary human blood. Erythrocytes were collected by centrifuging the blood three times in chilled phosphate buffered saline (PBS at 4 °C) at 1000 × g for 10 min. The final pellet was resuspended in PBS to give a 2% w/v solution. Using a microtitre plate, 100 μL of the erythrocyte solution was added to dextran, PLL, stearyl-PLL or stearyl-PLL+ LDL (1–1000/μg/mL) in a volume of […]. Samples were then incubated for 3 h and the microtitre plate was centrifuged then at 1000 × g for 10 min and the supernatants (100 μL) transferred into a new microtitre plate. Hemoglobin release was determined spectrophotometrically using a microtitre plate reader (absorbance at 550 nm). Results were expressed as the amount of released hemoglobin induced by the compounds as a percentage of the total. Hemolysis test was tested according to the guide of biological evaluation of medical device (SFDA, China).

[8] = biological target: EGFR (Homo sapiens, UniProt P00533); test: EGFR autophosphorylation kinase assay (DELFIA/time-resolved fluorometry)
Experimental: (§2) A sequence that encodes (His)6 was located at the 5′ upstream to the HER-2 and EGFR sequences. Sf-9 cells were infected for 3 days for protein expression. Sf-9 cell pellets were solubilized at 0 °C in a buffer at pH 7.4 containing 50 mM HEPES, 10 mM NaCl, 1% Triton, 10 μM ammonium molybdate, 100 μM sodium vanadate, 10 μg/mL aprotinin, 10 μg/mL leupeptin, 10 μg/mL pepstatin, and 16 μg/mL benzamidine, HCl for 20 min followed by 20 min centrifugation. Crude extract supernatant was passed through an equilibrated Ni–NTA superflow packed column and washed with 10 mM and then 100 mM imidazole to remove nonspecifically bound material. Histidine-tagged proteins were eluted with 250 and 500 mM imidazole and dialyzed against 50 mM NaCl, 20 mM HEPES, 10% glycerol and 1 μg/mL each of aprotinin, leupeptin, and pepstatin for 2 h. The entire purification procedure was performed at 4 °C or on ice.
(§3) Both EGFR and HER-2 kinase assays were set up to assess the level of autophosphorylation based on DELFIA/Time-Resolved Fluorometry. […] Then, 10 μL of 5× buffer (containing 20 mM HEPES, 2 mM MnCl2, 100 μM Na3VO4, and 1 mM DTT) and 20 μL of 0.1 mM ATP-50 mM MgCl2 was added for 1 h. Positive and negative controls were included in each plate by incubation of enzyme with or without ATP-MgCl2. At the end of incubation, liquid was aspirated and plates were washed three times with wash buffer. A 75 μL (400 ng) sample of europium-labeled anti-phosphotyrosine antibody was added to each well for another 1 h of incubation. […] The IC50 was obtained from curves of percentage inhibition with eight concentrations of compound. As the contaminants in the enzyme preparation are fairly low, the majority of the signal detected by the anti-phosphotyrosine antibody is from EGFR or HER-2. The experiment was performed for three independent times and in triplicate each time.

[9] = biological target: HER-2 (Homo sapiens, UniProt P04626); test: HER-2 autophosphorylation kinase assay (DELFIA/time-resolved fluorometry)
Chain of HER-2 (P04626 676-1245): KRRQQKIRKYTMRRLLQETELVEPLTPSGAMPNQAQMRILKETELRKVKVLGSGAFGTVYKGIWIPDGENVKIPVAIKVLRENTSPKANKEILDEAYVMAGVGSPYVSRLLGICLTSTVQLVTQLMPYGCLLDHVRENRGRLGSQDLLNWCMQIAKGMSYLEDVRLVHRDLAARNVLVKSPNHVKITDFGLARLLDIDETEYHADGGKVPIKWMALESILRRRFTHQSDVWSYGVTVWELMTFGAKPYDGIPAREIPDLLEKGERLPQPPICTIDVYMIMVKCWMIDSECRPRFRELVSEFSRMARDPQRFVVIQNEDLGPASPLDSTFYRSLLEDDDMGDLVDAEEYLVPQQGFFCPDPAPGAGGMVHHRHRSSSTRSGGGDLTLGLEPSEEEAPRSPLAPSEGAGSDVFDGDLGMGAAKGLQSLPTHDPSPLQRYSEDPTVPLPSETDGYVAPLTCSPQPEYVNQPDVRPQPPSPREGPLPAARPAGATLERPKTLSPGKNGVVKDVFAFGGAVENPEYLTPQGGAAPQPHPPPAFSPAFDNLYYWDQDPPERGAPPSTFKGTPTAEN
Experimental: as §2, §3

Chain of HER-2 protein (truncated) (P04626 676-1245): as above
Chain of EGFR (P00533 669-1210): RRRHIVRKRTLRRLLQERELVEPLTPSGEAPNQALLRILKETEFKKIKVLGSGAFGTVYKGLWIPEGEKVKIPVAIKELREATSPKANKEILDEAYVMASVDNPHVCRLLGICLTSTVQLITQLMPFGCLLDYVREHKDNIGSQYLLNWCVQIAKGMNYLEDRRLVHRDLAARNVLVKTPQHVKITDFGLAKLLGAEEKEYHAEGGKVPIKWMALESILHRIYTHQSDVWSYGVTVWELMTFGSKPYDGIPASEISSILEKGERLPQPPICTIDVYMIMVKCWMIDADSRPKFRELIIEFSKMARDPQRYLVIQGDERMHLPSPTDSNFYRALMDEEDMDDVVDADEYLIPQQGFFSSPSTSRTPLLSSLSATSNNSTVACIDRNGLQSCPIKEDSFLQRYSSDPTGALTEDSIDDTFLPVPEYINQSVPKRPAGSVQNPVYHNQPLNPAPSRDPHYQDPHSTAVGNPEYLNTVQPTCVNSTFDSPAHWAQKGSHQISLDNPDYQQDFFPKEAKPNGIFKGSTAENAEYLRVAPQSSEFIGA
T1 sequence (P35968 834-1162 limits assumed, species assumed): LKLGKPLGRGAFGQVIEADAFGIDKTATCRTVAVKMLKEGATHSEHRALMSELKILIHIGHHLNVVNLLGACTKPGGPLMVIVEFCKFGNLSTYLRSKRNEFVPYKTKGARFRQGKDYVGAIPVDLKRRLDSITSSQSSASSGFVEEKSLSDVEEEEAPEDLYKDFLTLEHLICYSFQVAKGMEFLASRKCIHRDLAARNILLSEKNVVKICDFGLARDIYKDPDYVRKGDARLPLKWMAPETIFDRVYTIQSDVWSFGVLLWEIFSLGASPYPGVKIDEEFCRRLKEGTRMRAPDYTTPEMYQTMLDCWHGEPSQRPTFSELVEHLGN

**Q.** Which GI50 [1] does the source give for `COc1ccc(C2CC(c3ccc4c(c3)OCCO4)=NN2C(N)=S)cc1OC` (stereo not drawn) [Compound C20, 3-(2,3-dihydrobenzo[b][1,4]dioxin-6-yl)-5-(3,4-dimethoxyphenyl)-4,5-dihydro-1H-pyrazole-1-carbothioamide] here?
**A.** 150 ± 10 nM

**Q.** And the induction of apoptosis [2]?
**A.** induce apoptosis of activated MDA-MB-453 cell line in a dose-dependent manner

**Q.** And the p-HER-2 levels [3]?
**A.** gradually trend of decrease

**Q.** What about the p-EGFR levels [4] of the same compound?
**A.** unconspicuous

**Q.** And the Kd [5]?
**A.** 187 nM

**Q.** What about the IC50 [6] of the same compound?
**A.** 18400 ± 1740 nM

**Q.** What about the “Hemolysis LC30” value [7] of the same compound?
**A.** >10000 µg/mL

**Q.** And the IC50 [8]?
**A.** 28600 ± 2520 nM

**Q.** What about the IC50 [9] of the same compound?
**A.** 30 ± 2 nM
